Assay results reported in patent US20060223768A1, “Regulation of gene expression” (priority 2003, published 2006).

What was measured:
HCT116 p53+/+ cells = assay: Apoptosis (annexin V FACS, DNA laddering, phase contrast) in HCT116 p53+/+ cells; type: cell-based, human
HCT116 p53−/− cells = assay: Apoptosis (annexin V FACS, DNA laddering, phase contrast) in HCT116 p53−/− cells; type: cell-based, human; conditions: sulindac sulphide 120 μM, 24 and 48 hr
Method: HCT116 clones were cultured in DMEM with 10% FCS. All the cell clones were cultured with penicillin 100 units ml^−1 and streptomycin 100 μg ml^−1 at 37° C. in 5% CO2 in air. Other human colorectal cancer cells lines, also defective for DNA mismatch repair (see Branch et al., 1995), were:- LoVo and RKO (p53 wild type); DLD1, LS174T, SW48 and HT29 (all p53 mutant). For transfection the cells were trypsinised and sub-cultured into 6 well plates (10 cm^2) without antibiotics, 1.5×10^5 cells per well. Selected 21-nucleotide RNAs were synthesised and BPLC purified (MWG; Germany) and annealed into siRNA duplexes according to the instructions supplied. 24 h after sub-culture the cells were transfected with siRNA formulated into liposomes (Oligofectamine, Life Technologies) according to the manufacturer's instructions. […] The final volume of culture medium was 1.5 ml per well. Cells were harvested for analysis at various times thereafter as indicated in the results. Each experiment with HCT116 cells was carried out four or more times. Transfection efficiencies were established by transfecting with liposomes containing FITC-dextran (Jiang and Milner, 2002). […]
Cell growth curves were determined by cell counting. […] The fixed cells were pelleted, washed in PBS and resuspended in PBS containing 0.1 μg/ml propidium iodide with 200 U/ml RNase A and analysed by FACS. […]

| Compound | apoptosis by agents that activate p53 (HCT116 p53+/+ cells; HCT116 cells, Zhang et al., 2000 and results not shown) | apoptosis induced by treatment with sulindac (HCT116 p53−/− cells) | apoptosis induced by treatment with sulindac (HCT116 p53+/+ cells; p53+/+ cells, sulindac sulphide 120 μM, 24 and 48 hr) |
| --- | --- | --- | --- |
| O=c1[nH]cc(F)c(=O)[nH]1 [5′ FU, 5-fluorouracil] | induced |  |  |
| CC1=C(CC(=O)O)c2cc(F)ccc2/C1=C\c1ccc([S+](C)[O-])cc1 (stereo not drawn) [Sulindac, sulindac] |  | induced apoptosis | induced apoptosis |
